Data taken from article PMC5643462, “Encrypted Antimicrobial Peptides from Plant Proteins” (Scientific Reports, 2017).
≈ marks a conversion by molar mass, not a printed value. Like-named read-outs stand apart in the source and are kept apart here. No end group written: not given here.

Legend:
Bacillus cereus = experiment: microbe, parasite or virus in culture; settings: ATCC 14579; Mueller-Hinton; 37 °C, 24 h; start 5.0 x 10^5 cells; 256-0.5 µM; mean ± SD of 3 biological repetitions (SD 0 not displayed); N/A = no antimicrobial activity observed
Description: (§1) The susceptibility test of microorganisms was performed to evaluate the inhibitory activity of the IAPs. Protocols M7-A10[50], M27-A3[51] and M38-A2[52] from Clinical & Laboratory Standards Institute (CLSI) were used for bacteria, yeasts and filamentous fungi tests, respectively. Briefly, different concentration of IAPs (256-0.5 µM) were tested against 16 microorganisms, in a final volume of 100 µL. Media conditions, final cell concentration and incubation conditions are presented in Supplementary Material 07, Table S5. Three biological repetitions, with 2 technical replicates each, were performed for each test, on polystyrene flat-bottom 96 wells microplates. The minimum inhibitory concentration (MIC) was defined as the concentration that no cells/hyphae were detected when visualized by optical microscopy.
(§2) Supplementary Material 07, Table S5
(§3) Table S5. Microorganisms and growth conditions.

Escherichia coli = experiment: microbe, parasite or virus in culture; settings: ATCC 25922; Mueller-Hinton; 37 °C, 24 h; start 5.0 x 10^5 cells; 256-0.5 µM; mean ± SD of 3 biological repetitions (SD 0 not displayed); N/A = no antimicrobial activity observed
Description: as §1, §2, §3

Bacillus subtilis = experiment: microbe, parasite or virus in culture; settings: ATCC 23857; Mueller-Hinton; 37 °C, 24 h; start 5.0 x 10^5 cells; 256-0.5 µM; mean ± SD of 3 biological repetitions (SD 0 not displayed); N/A = no antimicrobial activity observed
Description: as §1, §2, §3

Cryptococcus neoformans = experiment: microbe, parasite or virus in culture; settings: for Minimum inhibitory concentration, Cryptococcus neoformans: ATCC 28957, RPMI 1640 pH 7.0, 37 °C, 72 h, start 2.5 x 10^3 cells, 256-0.5 µM, mean ± SD of 3 biological repetitions (SD 0 not displayed), N/A = no antimicrobial activity observed
Description: as §1, §2, §3

Candida albicans = experiment: microbe, parasite or virus in culture; settings: for Minimum inhibitory concentration, Candida albicans: ATCC 90028, RPMI 1640 pH 7.0, 37 °C, 48 h, start 2.5 x 10^3 cells, 256-0.5 µM, mean ± SD of 3 biological repetitions (SD 0 not displayed), no cells seen by optical microscopy, N/A = no antimicrobial activity observed
Description: as §1, §2, §3

Pseudomonas aeruginosa = experiment: microbe, parasite or virus in culture; settings: ATCC 27853; Mueller-Hinton; 37 °C, 24 h; start 5.0 x 10^5 cells; 256-0.5 µM; mean ± SD of 3 biological repetitions (SD 0 not displayed); N/A = no antimicrobial activity observed
Description: as §1, §2, §3

Staphylococcus aureus = experiment: microbe, parasite or virus in culture; settings: ATCC 25923; Mueller-Hinton; 37 °C, 24 h; start 5.0 x 10^5 cells; 256-0.5 µM; mean ± SD of 3 biological repetitions (SD 0 not displayed); N/A = no antimicrobial activity observed
Description: as §1, §2, §3

human red blood cells = experiment: Cytotoxicity: hemolysis of human red blood cells; format: cell-based
Description: The cytotoxicity of the selected IAPS was performed using human red blood cells in strict accordance with relevant guidelines and regulations (Ethical committee – UnB # 1.939.989). Different concentrations of IAPs (128 µM–0.5 µM) were incubated with a final concentration of 2.5 × 10^5 red blood cells.mL^−1. Briefly, 100 µL of red blood cells was incubated with 100 µL of different concentrations of each IAP, prepared in PBS, for 30 minutes at 37 °C, with constant shaking at 120 rpm. PBS and Triton X-100 0.1% (v/v) were used as negative and positive controls, respectively. After incubation, the solution was centrifuged at 900 × g for five minutes followed by transferring 50 µL of the supernatant to flat-bottom polystyrene 96-well micro plates containing 50 µL of PBS. Microplate reading was performed at a BioTek Multireader, using a wavelength of 540 nm. All tests were performed in 3 biological replicates, composed of 3 biological repetitions each. The obtained data was subtracted by the negative control and relative to the positive control, defined as 100% lysis.

[1] = system: Moniliophthora perniciosa basidiospores; experiment: Inhibition of M. perniciosa basidiospore germination; format: cell-based; settings: 1 × 10^6 basidiospores mL^−1, one hour with peptide (256-0.5 µM), 24 °C, counted after 4 hours on agar slides, biological triplicates; for IC50: concentration at which at least 50% of basidiospores germination was inhibited, read-out: Inhibitory concentration IC50, M. perniciosa basidiospores germination; for Inhibitory concentration IC95, M. perniciosa basidiospores germination: concentration at which at least 95% of basidiospores germination was inhibited
Description: The antimicrobial potential of T. cacao IAPs for inhibiting M. perniciosa basidiospores was evaluated. Briefly, 1 × 10^6 basidiospores mL^−1 were incubated for one hour with different concentrations of T. cacao IAPs (256-0.5 µM), at 24 °C, in a final volume of 100 µL. Autoclaved dH20 was used as a control. After incubation, 3 droplets of 10 µL each were placed in a slide coated with agar (1.2% (w/v)). Slides were incubated for 4, 24 and 48 hours at 24 °C. Slides were visualized using a DMRXA light microscope (Leica). Approximately 150–200 basidiospores per droplet from each time point were counted and compared to the control condition, which was defined as 100% germination. All experiments were performed in biological triplicates, with 3 technical repetitions each.

Molecule | Minimum inhibitory concentration, Bacillus cereus (Bacillus cereus) | Minimum inhibitory concentration, Escherichia coli (Escherichia coli) | Minimum inhibitory concentration, Bacillus subtilis (Bacillus subtilis) | Minimum inhibitory concentration, Cryptococcus neoformans (Cryptococcus neoformans) | Minimum inhibitory concentration, Candida albicans (Candida albicans) | Minimum inhibitory concentration, Pseudomonas aeruginosa (Pseudomonas aeruginosa) | Minimum inhibitory concentration, Staphylococcus aureus (Staphylococcus aureus) | Hemolytic activity (% ± SD) at 1 µM (human red blood cells) | Hemolytic activity (% ± SD) at 2 µM (human red blood cells) | Hemolytic activity (% ± SD) at 4 µM (human red blood cells) | Hemolytic activity (% ± SD) at 8 µM (human red blood cells) | Hemolytic activity (% ± SD) at 16 µM (human red blood cells) | Hemolytic activity (% ± SD) at 32 µM (human red blood cells) | Hemolytic activity (% ± SD) at 64 µM (human red blood cells) | Hemolytic activity (% ± SD) at 128 µM (human red blood cells) | Hemolytic activity of human red blood cells (%) SC50 (human red blood cells) | IC50 [1] | Inhibitory concentration IC95, M. perniciosa basidiospores germination [1] | also measured
GFKLGRKLVKVFKWII-NH2 [Gr01] | 1.0 µM | 0.5 µM | 1.0 µM | 1.0 µM | 1.0 µM | 3.33 ± 1.15 µM | 0.83 ± 0.29 µM | 0.09 ± 0.01% | 0.00 ± 0.00% | 0.30 ± 0.15% | 1.96 ± 0.89% | 3.82 ± 1.28% | 11.33 ± 1.66% | 33.9 9 ± 5.46% | 51.72 ± 7.33% | 64 µM |  |  | Concentration that induced 50% hemolysis (human red blood cells; red cells of human): 64 µM
OC(Cn1cncn1)(Cn1cncn1)c1ccc(F)cc1F [Fluconazole, reference compound] |  |  |  |  |  |  |  |  |  |  |  |  |  |  |  |  |  |  | MIC (Cryptococcus neoformans; Cryptococcus neoformans, ATCC28957, 72 h, pH 7, read-out: Minimum inhibitory concentration, Cryptococcus neoformans): 1.63 µM (≈ 0.499 µg/mL); MIC (Candida albicans; Candida albicans, ATCC90028, 48 h, pH 7, read-out: Minimum inhibitory concentration, Candida albicans): 1.63 µM (≈ 0.499 µg/mL)
GSLHGFMYKYLKTLVLRLY-NH2 [Zm01] | 64.0 µM | 13.33 ± 4.61 µM | 8.0 µM | 4.0 µM | 6.67 ± 2.31 µM | 16.0 µM | 16 µM | 0.00 ± 0.00% | 0.02 ± 0.00% | 0.00 ± 0.00% | 0.00 ± 0.00% | 0.66 ± 0.14% | 2.45 ± 1.03% | 6.56 ± 1.87% | 15.72 ± 3.48% | >128 µM |  |  | 
GSLHGFMYRYLKNMVLNLF-NH2 [Cs01] | 64.0 µM | 32.0 µM | 8.0 µM | 8.0 µM | 2.67 ± 1.15 µM | 32.0 µM | 4.0 µM | 0.10 ± 0.04% | 0.05 ± 0.03% | 0.01 ± 0.00% | 0.09 ± 0.01% | 0.27 ± 0.09% | 0.31 ± 0.15% | 2.18 ± 1.62% | 8.01 ± 2.16% | >128 µM |  |  | 
GFKDLLKGAAKALVKTVLF-NH2 [Asc-8, Ascaphin-8, reference compound] |  |  |  |  |  |  |  | 0.00 ± 0.00% | 0.32 ± 0.1% | 0.26 ± 0.2% | 14.72 ± 0 .79% | 28.10 ± 4.76% | 54.35 ± 4.5% | 91.90 ± 6.36% | 101.56 ± 9.52% | 16 µM | 8 µM | 16 µM | 
IVNHLVKLFDKGLNSIVNLR-NH2 [Tc05] |  |  |  |  |  |  |  | 0.11 ± 0.02% | 0.07 ± 0.01% | 0.15 ± 0.05% | 0.07 ± 0.04% | 0.50 ± 0.10% | 0.21 ± 0.09% | 0.78 ± 0.47% |  |  | 128 µM | 256 µM | Hemolytic activity of human red blood cells (%) SC50 (human red blood cells; SC50 = IAP concentration that at least 50% of red blood cells remain intact, 128 µM–0.5 µM tested, PBS, 30 minutes, 37 °C, absorbance 540 nm): >128 µM
